{"source": "patent US20230067910A1", "about": "“NOVEL COMPOUNDS FOR THE DIAGNOSIS, TREATMENT AND PREVENTION OF DISEASES ASSOCIATED WITH THE AGGREGATION OF ALPHA-SYNUCLEIN” (MODAG GMBH, priority 2019, published 2023)", "data": [{"target": "T1, alpha-synuclein (sonicated fibrils) (Homo sapiens, UniProt P37840)", "T1 construct": "made in house; host or cells: E. coli", "assay": "Modified competition binding assay, protocol 3b, reference ligand [3H]-compound 2", "settings": "Table 5, reference ligand [3H]-compound 2 (1 nM)", "protocol": "Alpha-synuclein and tau46 were purified from E. coli according to established protocols (Nuscher B, et al., J. Biol. Chem., 2004; 279(21):21966-75), Aβ1-42 was obtained from rPeptide, Watkinsville, Ga., USA. Fibrils were prepared by aggregation of recombinant protein via constant agitation. In detail, 70 μM of alpha-synuclein mixed with 100 mM NaCl in 50 mM Tris, pH 7.0+0.02% NaN3 were incubated at 1,400 rpm, 37° C. for 96 h. 10 μM of tau46 were incubated with 0.03 mg/ml heparin in 50 mM Tris, pH=7.0 at 1,000 rpm, 37° C. for 72 h. Aβ1-42 was solved in 20 mM NaPi, pH=8.0+0.2 mM EDTA+0.02% NaN3 (Deeg A A, et al., Biochim. Biophys. Acta, 2015; 1850(9): 1884-90; Goedert M, et al. Nature, 1996; 383(6600): 550-3).\nFor competition binding experiments, a fixed concentration of recombinant αSYN fibrils (sonicated, 15 nM/well) was incubated with 1 nM [^3H]-compound 1 or [3H]-compound 2 and decreasing concentrations of a serial dilution of non-labeled competitor (serial dilution 1:4 or 1:3.5 or 1:3 providing the concentration ranges of non-labeled competitor 1 μM-[…] 1 μM-4 nM or 1 μM-[…], respectively) in 30 mM Tris-HCl, 10% ethanol, 0.05% Tween20, pH 7.4 in a total volume of 200 μL/well. Plates were incubated for 4.5 hours at RT covered by removable sealing tape (PerkinElmer, Waltham, Mass., USA).\nFiltration and readout were performed as described for saturation binding assays. [^3H]-labeled ligand binding [in CMP] was plotted against increasing competitor concentrations and data points were fitted using non-linear regression analysis to calculate the IC50 and Ki values (GraphPad Software, Inc., Version 7.03, La Jolla (Calif.), USA). In the competition binding assay with sonicated recombinant αSYN fibrils, the calculation of Ki values was done based on KD values of 0.6 nM and 0.2 nM for compound 1 and compound 2, respectively.\nThe fibril competition assay provides Ki values. Ki is a quantitative measure that represents the concentration of the non-radioactive tested compound (competitor ligand) required to replace 50% of a reference compound, in this case [H]-compound 1 (1 nM) or [H]-compound 2 (1 nM), which is bound to the target structures (1 nM), in our case recombinant alpha-synuclein and tau46 fibrils. This assay is suitable for a screening of non-radioactive ligands.", "units": {"Ki": "nM"}, "values": [{"compound": "4-[5-(2,6-dichloropyridin-4-yl)-1H-pyrazol-3-yl]-N,N-dimethylaniline [Compound 42]", "Ki": 23}, {"compound": "6-[5-(2-bromopyridin-4-yl)-1H-pyrazol-3-yl]-1,3-dioxolo[4,5-b]pyridine [Compound 32]", "Ki": 18}, {"compound": "[2H]C([2H])([2H])Nc1ccc(-c2cc(-c3ccnc(Br)c3)[nH]n2)cc1", "note": "[Compound 21, 4-[5-(2-bromopyridin-4-yl)-1H-pyrazol-3-yl]-N-(^2H3)methylaniline]", "Ki": 0.3}, {"compound": "CNc1ccc(-c2cc(-c3ccnc(Cl)c3)[nH]n2)cc1", "note": "[Compound 22, 4-[5-(2-chloropyridin-4-yl)-1H-pyrazol-3-yl]-N-methylaniline]", "Ki": 0.3}, {"compound": "CCNc1ccc(-c2cc(-c3ccnc(Br)c3)[nH]n2)cc1", "note": "[Compound 23, 4-[5-(2-bromopyridin-4-yl)-1H-pyrazol-3-yl]-N-ethylaniline]", "Ki": 0.5}, {"compound": "CNc1ccc(-c2cc(-c3ccnc(F)c3)[nH]n2)cc1", "note": "[Compound 24, 4-[5-(2-fluoropyridin-4-yl)-1H-pyrazol-3-yl]-N-methylaniline]", "Ki": 0.8}, {"compound": "FCCNc1ccc(-c2cc(-c3ccnc(Br)c3)[nH]n2)cc1", "note": "[Compound 25, 4-[5-(2-bromopyridin-4-yl)-1H-pyrazol-3-yl]-N-(2-fluoroethyl)aniline]", "Ki": 0.7}, {"compound": "CN1CCN(c2ccc(-c3cc(-c4ccnc(Br)c4)[nH]n3)cc2)CC1", "note": "[Compound 26, 1-{4-[5-(2-bromopyridin-4-yl)-1H-pyrazol-3-yl]phenyl}-4-methylpiperazine]", "Ki": 1}, {"compound": "Fc1cc(-c2cc(-c3ccc(N4CCOCC4)cc3)n[nH]2)ccn1", "note": "[Compound 27, 4-{4-[5-(2-fluoropyridin-4-yl)-1H-pyrazol-3-yl]phenyl}morpholine]", "Ki": 1.3}, {"compound": "Clc1c(-c2ccc3c(c2)OCO3)n[nH]c1-c1ccnc(Br)c1", "note": "[Compound 28, 4-[3-(1,3-benzodioxol-5-yl)-4-chloro-1H-pyrazol-5-yl]-2-bromopyridine]", "Ki": 4.2}, {"compound": "Brc1cc(-c2c[nH]c(-c3ccc4c(c3)OCO4)n2)ccn1", "note": "[Compound 29, 4-[2-(1,3-benzodioxol-5-yl)-1H-imidazol-4-yl]-2-bromopyridine]", "Ki": 6.3}, {"compound": "Brc1cc(-c2nc(-c3ccc4c(c3)OCO4)n[nH]2)ccn1", "note": "[Compound 30, 4-[3-(1,3-benzodioxol-5-yl)-1H-1,2,4-triazol-5-yl]-2-bromopyridine]", "Ki": 12}, {"compound": "CN(C)c1ccc(-c2c[nH]c(-c3ccnc(Br)c3)n2)cc1", "note": "[Compound 31, 4-[2-(2-bromopyridin-4-yl)-1H-imidazol-4-yl]-N,N-dimethylaniline]", "Ki": 13}, {"compound": "Brc1cc(-c2nc(-c3ccc4c(c3)OCO4)c[nH]2)ccn1", "note": "[Compound 33, 4-[4-(1,3-benzodioxol-5-yl)-1H-imidazol-2-yl]-2-bromopyridine]", "Ki": 33}, {"compound": "Brc1cccc(-c2cc(-c3cnc4c(c3)OCO4)n[nH]2)c1", "note": "[Compound 34, 6-[5-(3-bromophenyl)-1H-pyrazol-3-yl]-1,3-dioxolo[4,5-b]pyridine]", "Ki": 41}, {"compound": "Clc1cc(-c2nc(-c3ccc(N4CCCC4)cc3)c[nH]2)ccn1", "note": "[Compound 35, 2-chloro-4-{4-[4-(pyrrolidin-1-yl)phenyl]-1H-imidazol-2-yl}pyridine]", "Ki": 168}, {"compound": "CNc1ccc(-c2cc(-c3cncc(Cl)n3)[nH]n2)cc1", "note": "[Compound 36, 4-[5-(6-chloropyrazin-2-yl)-1H-pyrazol-3-yl]-N-methylaniline]", "Ki": 12}, {"compound": "CNc1ccc(-c2cc(-c3cc(Br)nc(Br)c3)[nH]n2)cc1", "note": "[Compound 37, 4-[5-(2,6-dibromopyridin-4-yl)-1H-pyrazol-3-yl]-N-methylaniline]", "Ki": 16}, {"compound": "CNc1ccc(-c2cc(-c3cc(C)nc(Br)c3)[nH]n2)cc1", "note": "[Compound 38, 4-[5-(2-bromo-6-methylpyridin-4-yl)-1H-pyrazol-3-yl]-N-methylaniline]", "Ki": 113}, {"compound": "CNc1ccc(-c2cc(-c3cnnc(Cl)c3)[nH]n2)cc1", "note": "[Compound 39, 4-[5-(6-chloropyridazin-4-yl)-1H-pyrazol-3-yl]-N-methylaniline]", "Ki": 4.2}, {"compound": "CNc1ccc(-c2cc(-c3ccnc(Cl)n3)[nH]n2)cc1", "note": "[Compound 40, 4-[5-(2-chloropyrimidin-4-yl)-1H-pyrazol-3-yl]-N-methylaniline]", "Ki": 3.9}, {"compound": "CNc1ccc(-c2cc(-c3cccc(Cl)n3)[nH]n2)cc1", "note": "[Compound 41, 4-[5-(6-chloropyridin-2-yl)-1H-pyrazol-3-yl]-N-methylaniline]", "Ki": 14}, {"compound": "CN(C)c1ccc(-c2cc(-c3cc(Cl)ncn3)[nH]n2)cc1", "note": "[Compound 43, 4-[5-(6-chloropyrimidin-4-yl)-1H-pyrazol-3-yl]-N,N-dimethylaniline]", "Ki": 0.5}, {"compound": "CN(C)c1ccc(-c2nc(-c3ccnc(Br)c3)n[nH]2)cc1", "note": "[Compound 44, 4-[3-(2-bromopyridin-4-yl)-1H-1,2,4-triazol-5-yl]-N,N-dimethylaniline]", "Ki": 0.6}, {"compound": "CN(C)c1ccc(-c2nc(-c3ccnc(Br)c3)c[nH]2)cc1", "note": "[Compound 45, 4-[4-(2-bromopyridin-4-yl)-1H-imidazol-2-yl]-N,N-dimethylaniline]", "Ki": 0.2}, {"compound": "Cc1cc(-c2cc(-c3ccc4c(c3)OCO4)n[nH]2)cc(Br)n1", "note": "[Compound 47, 4-[3-(1,3-benzodioxol-5-yl)-1H-pyrazol-5-yl]-2-bromo-6-methylpyridine]", "Ki": 97}, {"compound": "Clc1cc(-c2cc(-c3ccc4c(c3)OCO4)n[nH]2)c(Cl)nn1", "note": "[Compound 48, 4-[5-(1,3-benzodioxol-5-yl)-1H-pyrazol-3-yl]-3,6-dichloropyridazine]", "Ki": 59}, {"compound": "Fc1cc(-c2cc(-c3ccc(N4CCNCC4)cc3)n[nH]2)ccn1", "note": "[Compound 49, 1-{4-[5-(2-fluoropyridin-4-yl)-1H-pyrazol-3-yl]phenyl}piperazine]", "Ki": 61}, {"compound": "FCCN1CCN(c2ccc(-c3cc(-c4ccnc(Cl)c4)[nH]n3)cc2)CC1", "note": "[Compound 50, 1-{4-[5-(2-chloropyridin-4-yl)-1H-pyrazol-3-yl]phenyl}-4-(2-fluoroethyl)piperazine]", "Ki": 0.9}, {"compound": "COCCN1CCN(c2ccc(-c3cc(-c4ccnc(Br)c4)[nH]n3)cc2)CC1", "note": "[Compound 51, 1-{4-[5-(2-bromopyridin-4-yl)-1H-pyrazol-3-yl]phenyl}-4-(2-methoxyethyl)piperazine]", "Ki": 2.7}, {"compound": "FC1CCN(c2ccc(-c3cc(-c4ccnc(Br)c4)[nH]n3)cc2)CC1", "note": "[Compound 52, 2-bromo-4-{3-[4-(4-fluoropiperidin-1-yl)phenyl]-1H-pyrazol-5-yl}pyridine]", "Ki": 3.1}, {"compound": "CN(C)c1ccc(-c2cc(-c3ccnc(Cl)c3)[nH]n2)cc1", "note": "[Compound 53, 4-[5-(2-chloropyridin-4-yl)-1H-pyrazol-3-yl]-N,N-dimethylaniline]", "Ki": 0.8}, {"compound": "Fc1ccnc(-c2cc(-c3ccc4c(c3)OCO4)n[nH]2)c1", "note": "[Compound 54, 2-[3-(1,3-benzodioxol-5-yl)-1H-pyrazol-5-yl]-4-fluoropyridine]", "Ki": 8.4}, {"compound": "FC1CN(c2ccc(-c3cc(-c4ccnc(Cl)c4)[nH]n3)cc2)C1", "note": "[Compound 55, 2-chloro-4-{3-[4-(3-fluoroazetidin-1-yl)phenyl]-1H-pyrazol-5-yl}pyridine]", "Ki": 1.2}]}]}
